These results are taken from patent US10487068B2, “Pyridazine derivatives as RORc modulators” (Genentech, Inc., priority 2015, dated 2019).

The structures appear in SMILES notation.

The target in the test is T1, RORc ligand binding domain (Homo sapiens, UniProt P51449).
T1 sequence (P51449 269-508 limits assumed): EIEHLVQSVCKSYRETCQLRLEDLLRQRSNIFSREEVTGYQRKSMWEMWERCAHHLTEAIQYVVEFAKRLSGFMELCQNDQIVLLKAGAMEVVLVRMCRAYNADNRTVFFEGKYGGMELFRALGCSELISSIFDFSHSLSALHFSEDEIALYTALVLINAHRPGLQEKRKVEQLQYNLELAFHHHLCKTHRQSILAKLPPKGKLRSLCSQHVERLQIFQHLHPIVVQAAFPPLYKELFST
The test can be described thus: In Vitro RORc Ligand Binding Assay. Conditions: RORc IC50, radioligand 25-[3H]hydroxycholesterol 6 nM; 0.6 ug/mL RORc receptor; 3 h at 25° C.

In general, IC50 refers to the concentration that gives 50% inhibition. The compound `CC1(C)[C@H]2CC[C@]1(c1ccnc(N3CCO[C@H](CO)C3)n1)c1nnc(-c3c(F)cccc3F)cc12` [Example 335] gave a half-inhibitory concentration (IC50) of 6.2 nM. In other words, the single-digit nanomolar range.
As for `CC1(C)[C@H]2CC[C@]1(c1cccc(-c3nc(CCO)n[nH]3)n1)c1nnc(-c3c(F)cccc3F)cc12` [Example 310, 2-(5-(6-((5R,8S)-3-(2,6-difluorophenyl)-9,9-dimethyl-5,6,7,8-tetrahydro-5,8-methanocinnolin-8-yl)pyridin-2-yl)-1H-1,2,4-triazol-3-yl)ethanol], the half-maximal inhibitory concentration (IC50) amounted to 73.5 nM.
As to `Cc1nc(C#N)ncc1[C@@]12CC[C@@H](c3cc(-c4c(F)cccc4F)nnc31)C2(C)C` [Example 227, 5-((5R,8S)-3-(2,6-difluorophenyl)-9,9-dimethyl-5,6,7,8-tetrahydro-5,8-methanocinnolin-8-yl)-4-methylpyrimidine-2-carbonitrile], the IC50 was 717 nM.
Turning to `C[C@H](O)CNS(=O)(=O)c1cccc([C@@]23CC[C@@H](c4cc(-c5c(F)cccc5F)nnc42)C3(C)C)n1` [Example 201, 6-((5R,8S)-3-(2,6-difluorophenyl)-9,9-dimethyl-5,6,7,8-tetrahydro-5,8-methanocinnolin-8-yl)-N-((S)-2-hydroxypropyl)pyridine-2-sulfonamide], the concentration for half-maximal inhibition (IC50) turned out to be 33.4 nM.
To `CC1(C)[C@H]2CC[C@]1(c1ccnc(C3CCOCC3)n1)c1nnc(-c3c(F)cccc3F)cc12` [Example 356] belongs 2.4 nM.
`CC1(C)[C@H]2CC[C@]1(c1cccc(-c3cc(CO)n[nH]3)n1)c1nnc(-c3c(F)cccc3F)cc12` [Example 313, (5-(6-((5R,8S)-3-(2,6-difluorophenyl)-9,9-dimethyl-5,6,7,8-tetrahydro-5,8-methanocinnolin-8-yl)pyridin-2-yl)-1H-pyrazol-3-yl)methanol] came in with an IC50 of 1.6 nM.
`CC1(C)[C@H]2CC[C@]1(c1cncc(C(=O)NCC3(O)CC3)n1)c1nnc(-c3c(F)cccc3F)cc12` [Example 124, 6-((5R,8S)-3-(2,6-difluorophenyl)-9,9-dimethyl-5,6,7,8-tetrahydro-5,8-methanocinnolin-8-yl)-N-((1-hydroxycyclopropyl)methyl)pyrazine-2-carboxamide]: the IC50 amounted to 50.8 nM. This IC50 lies about 32-fold higher than the previous one.
`CC1(C)[C@H]2CC[C@]1(c1cncc(-c3ccnc(OCC(N)=O)c3)n1)c1nnc(-c3c(F)cccc3F)cc12` [Example 410, 2-((4-(6-((5R,8S)-3-(2,6-difluorophenyl)-9,9-dimethyl-5,6,7,8-tetrahydro-5,8-methanocinnolin-8-yl)pyrazin-2-yl)pyridin-2-yl)oxy)acetamide] came in with a half-inhibitory concentration (IC50) of 6.3 nM.
On to `Cc1ncn(-c2cc([C@@]34CC[C@@H](c5cc(-c6c(F)cccc6F)nnc53)C4(C)C)cnn2)n1` [Example 389, (5R,8S)-3-(2,6-difluorophenyl)-9,9-dimethyl-8-(6-(3-methyl-1H-1,2,4-triazol-1-yl)pyridazin-4-yl)-5,6,7,8-tetrahydro-5,8-methanocinnoline], for which the half-inhibitory concentration (IC50) stood at 91.2 nM.
With `C[C@@H](O)CNS(=O)(=O)c1cccc([C@@]23CC[C@@H](c4cc(-c5c(F)cccc5F)nnc42)C3(C)C)n1` [Example 200, 6-((5R,8S)-3-(2,6-difluorophenyl)-9,9-dimethyl-5,6,7,8-tetrahydro-5,8-methanocinnolin-8-yl)-N-((R)-2-hydroxypropyl)pyridine-2-sulfonamide], the half-inhibitory concentration (IC50) was 11.7 nM. This IC50 is about 7.8-fold lower than that of the compound before.
Then `CC(C)(O)c1nnc(-c2ncc(F)c([C@@]34CC[C@@H](c5cc(-c6c(F)cccc6F)nnc53)C4(C)C)n2)[nH]1` [Example 234], with 36.6 nM.
Compound `CC(C)(O)c1cc(-c2cncc([C@@]34CC[C@@H](c5cc(-c6c(F)cccc6F)nnc53)C4(C)C)n2)ccn1` [Example 393, 2-(4-(6-((5R,8S)-3-(2,6-difluorophenyl)-9,9-dimethyl-5,6,7,8-tetrahydro-5,8-methanocinnolin-8-yl)pyrazin-2-yl)pyridin-2-yl)propan-2-ol] had an IC50 of 5.6 nM.
With `CC1(C)[C@H]2CC[C@]1(c1c(Br)cnc(C#N)c1F)c1nnc(-c3c(F)cccc3F)cc12` [Example 242, 5-bromo-4-((5R,8S)-3-(2,6-difluorophenyl)-9,9-dimethyl-5,6,7,8-tetrahydro-5,8-methanocinnolin-8-yl)-3-fluoropicolinonitrile], the IC50 was 5 nM.
To `CC1(C)[C@H]2CC[C@]1(c1cncc(C(=O)NC(CO)CO)n1)c1nnc(-c3c(F)cccc3F)cc12` [Example 119, 6-((5R,8S)-3-(2,6-difluorophenyl)-9,9-dimethyl-5,6,7,8-tetrahydro-5,8-methanocinnolin-8-yl)-N-(1,3-dihydroxypropan-2-yl)pyrazine-2-carboxamide] belongs 58.9 nM.
Regarding `CC1(C)[C@H]2CC[C@]1(c1cnc(C(N)=O)cn1)c1nnc(-c3c(F)cccc3F)cc12` [Example 13, 5-((5R,8S)-3-(2,6-difluorophenyl)-9,9-dimethyl-5,6,7,8-tetrahydro-5,8-methanocinnolin-8-yl)pyrazine-2-carboxamide], the half-maximal inhibitory concentration (IC50) is 4270 nM.
In turn, `CC1(C)[C@H]2CC[C@]1(c1ccnc(C3CCN(S(C)(=O)=O)CC3)n1)c1nnc(-c3c(F)cccc3F)cc12` [Example 349] yielded an IC50 of 6.3 nM.
Compound `CC(C)(O)CNC(=O)c1ccnc([C@@]23CC[C@@H](c4cc(-c5c(F)cccc5F)nnc42)C3(C)C)c1` [Example 77] returned a half-inhibitory concentration (IC50) of 139 nM.
For the compound `C[C@H](O)CNC(=O)c1nccc([C@@]23CC[C@@H](c4cc(-c5c(F)cccc5F)nnc42)C3(C)C)n1` [Example 114], the 50% inhibitory concentration (IC50) was determined as 38.8 nM. Against the preceding compound, the IC50 is about 3.6-fold lower.
Compound `CC1(C)[C@H]2CC[C@]1(c1ncccn1)c1nnc(-c3c(F)cccc3F)cc12` [Example 1, (5R,8R)-3-(2,6-difluorophenyl)-9,9-dimethyl-8-(pyrimidin-2-yl)-5,6,7,8-tetrahydro-5,8-methanocinnoline] gave an IC50 of 15 nM. Compared with the last compound, the IC50 is about 2.6-fold lower.
To `Cc1ncc(-c2cnc(C)c([C@@]34CC[C@@H](c5cc(-c6c(F)cccc6F)nnc53)C4(C)C)n2)o1` [Example 209, 5-(6-((5R,8S)-3-(2,6-difluorophenyl)-9,9-dimethyl-5,6,7,8-tetrahydro-5,8-methanocinnolin-8-yl)-5-methylpyrazin-2-yl)-2-methyloxazole] belongs 15.2 nM; to `CC(C)(O)c1cc(-c2cccc([C@@]34CC[C@@H](c5cc(-c6c(F)cccc6F)nnc53)C4(C)C)n2)[nH]n1` [Example 304, 2-(5-(6-((5R,8S)-3-(2,6-difluorophenyl)-9,9-dimethyl-5,6,7,8-tetrahydro-5,8-methanocinnolin-8-yl)pyridin-2-yl)-1H-pyrazol-3-yl)propan-2-ol], 9.4 nM.
In turn, `CC1(C)[C@H]2CC[C@]1(c1ccnc(-c3ccc(=O)[nH]c3)n1)c1nnc(-c3c(F)cccc3F)cc12` [Example 289] came in with a concentration for half-maximal inhibition (IC50) of 15.1 nM.
Turning to `CC1(C)[C@H]2CC[C@]1(c1cccc(S(=O)(=O)NCCO)n1)c1nnc(-c3c(F)cccc3F)cc12` [Example 162, 6-((5R,8S)-3-(2,6-difluorophenyl)-9,9-dimethyl-5,6,7,8-tetrahydro-5,8-methanocinnolin-8-yl)-N-(2-hydroxyethyl)pyridine-2-sulfonamide], the IC50 was determined as 23 nM.
Regarding `CC1(C)[C@H]2CC[C@]1(c1cncc(-c3nc(CO)co3)n1)c1nnc(-c3c(F)cccc3F)cc12` [Example 135, (2-(6-((5R,8S)-3-(2,6-difluorophenyl)-9,9-dimethyl-5,6,7,8-tetrahydro-5,8-methanocinnolin-8-yl)pyrazin-2-yl)oxazol-4-yl)methanol], the IC50 was 23.3 nM.
Then `C[C@@H](O)c1nnc(-c2ncc(F)c([C@@]34CC[C@@H](c5cc(-c6c(F)cccc6F)nnc53)C4(C)C)n2)[nH]1` [Example 258], with 21.6 nM.
Consider `CC1(C)[C@H]2CC[C@]1(c1ccnc(C3CCCN(C(=O)CO)C3)n1)c1nnc(-c3c(F)cccc3F)cc12` (some centres unmarked) [Example 364], for which the IC50 was 50.4 nM.
In the case of `Cc1cc([C@@]23CC[C@@H](c4cc(-c5c(F)cccc5F)nnc42)C3(C)C)nc(N)n1` [Example 391], the IC50 came to 44.6 nM. This IC50 and that of the compound before are within 1.5-fold of each other.
`CC1(C)[C@H]2CC[C@]1(c1nccc(=O)[nH]1)c1nnc(-c3c(F)cccc3F)cc12` [Example 20, 2-((5R,8R)-3-(2,6-difluorophenyl)-9,9-dimethyl-5,6,7,8-tetrahydro-5,8-methanocinnolin-8-yl)pyrimidin-4(3H)-one] had a half-maximal inhibitory concentration (IC50) of 140 nM.
Turning to `CC1(C)[C@H]2CC[C@]1(c1ccnc(-n3ccnn3)n1)c1nnc(-c3c(F)cccc3F)cc12` [Example 188], the IC50 came out at 7.5 nM.
The compound `COCCNC(=O)c1cccc([C@@]23CC[C@@H](c4cc(-c5c(F)cccc5F)nnc42)C3(C)C)n1` [Example 39, 6-((5R,8S)-3-(2,6-difluorophenyl)-9,9-dimethyl-5,6,7,8-tetrahydro-5,8-methanocinnolin-8-yl)-N-(2-methoxyethyl)picolinamide] came in with an IC50 of 11.6 nM.
For `CC1(C)[C@H]2CC[C@]1(c1ccnc(C(=O)NCCO)n1)c1nnc(-c3c(F)cccc3F)cc12` [Example 81], the 50% inhibitory concentration (IC50) was determined as 52.8 nM. Compared with the last compound, the IC50 is about 4.6-fold higher.
For `Cc1n[nH]cc1-c1nccc([C@@]23CC[C@@H](c4cc(-c5c(F)cccc5F)nnc42)C3(C)C)n1` [Example 298], the IC50 was 5.7 nM.
